Reference: patent US20210113687A1, “METHODS FOR TREATING INFLAMMATION” (NEW YORK UNIVERSITY, priority 2013, published 2021)
Values belong to the compound of their own block, whether it stands above or below them.

Legend:
[1] = test system: human Netrin-1 promoter luciferase reporter construct; test: Netrin-1 promoter-luciferase assay in HEK293T; format: cell-based; settings: BAY 11-7082 20 μM pretreatment
Method: Netrin-1 Promoter-Luciferase MMV HEK293T were transfected with a human Netrin-1 promoter luciferase reporter construct (SwitchGear Genomics) using Lipofectamine™ 2000 (Invitrogen). After transfection, media was changed and cells were pretreated with the NFKB inhibitor BAY 11-7082 (20 μM) for 1 hour prior stimulation with 100 μg/ml oxLDL or PBS as a control for 24 hours. Luciferase activity was assessed using the Dual-Glo Luciferase Assay System (Promega) and normalized to a constitutively expressed Renilla reporter.

[2] = test system: human Unc5H2 promoter-luciferase reporter; test: Unc5H2 promoter-luciferase assay (Example 4); format: cell-based; settings: pretreating with NFkB inhibitor
Method: (§1) Promoter-Luciferase assays. HEK293T cells were transfected with human NTNI or Unc5H2 promoter-luciferase reporter constructs (SwitchGear Genomics) using Lipofectamine™ 2000 (11668-019, Invitrogen) After transfection, media was changed and cells were treated with palmitate or BSA for 24 hours, in the presence or absence of the NFkB inhibitor BAY 11-7082 (10 μmol/L). Luciferase activity was measured using the DUAL-Glo Luciferase Assay system (E1910, Promega).

[3] = test system: human NTNI promoter-luciferase reporter; test: NTN1 promoter-luciferase assay (Example 4); format: cell-based; settings: pretreating with NFkB inhibitor
Method: as §1

BMDM [4] = test: netrin-1 ELISA of BMDM supernatants; format: cell-based, mouse; settings: blocking NFkB
Method: (§2) Cell culture. Primary bone marrow derived macrophage (BMDM) was prepared by flushing the bone marrow of the tibia and femur of 6-8 week old C57/B6 mice. The cells were grown in DMEM supplemented with 15% L929-conditioned media, 10% FBS and 1% penicillin/streptomycin for 7 days. BMDM were stimulated 250 pM palmitate conjugated with BSA or BSA as a control for 24 hours, or TNFα (10 ng/ml, 410-MT-010; R&D systems), IL-6 (40 nglml, 406-ML-005; R&D systems) and IL-4 (1 Onglml, 404-ML-010; R&D systems) for 24 h. In some assays, differentiated BMDM were treated with conditioned media from 3T3-L1 adipocytes differentiated as described (Lin, et al., J Biol Chem, 2005; 280:4617-4626) and treated with 250 pM palmitate conjugated with BSA or BSA for 24 hours. In certain experiments, anti-TNFα (0.4 μg/ml, AF-410-NA, R&D systems) or anti-IL-6 (0.025 μg/ml, MAB406; R&D systems) blocking antibody or IgG control (Normal Goat IgG: AB-108-C, Rat IgG1: MAB005; R&D systems) was added to conditioned media. […]
ELISA assay. Insulin (90080; crystal Chem Inc), adiponectin (ab108785; Abeam), FFA (SFA-1; Zen Bio), TNFa (88-7064-76; ebiosciences) and netrin-1 (E91827Mu; USCN life science Inc) levels were measured in the serum using mouse standards according to manufacturer's guidelines. Netrin-1 in human serum was measured using a human-specific netrin-1 ELISA from USCN Life Science Inc (700176; mybiosource).

[5] = test system: Human NTN1 promoter-luciferase reporter; test: NTN1 promoter luciferase assay (Example 2); format: cell-based
Method: (§3) Human NTN1 or UNC5B promoter-luciferase reporter plasmids (Switchgear Genomics) were transfected into HEK293T using Lipofectamine™ 2000 (11668-019, Invitrogen). After transfection, media was changed and cells were treated with oxLDL (50 μg/ml) or CoCl2 (0.1 mM), or DMOG (1 mmol/1) for 24 hours, in the presence or absence (PBS control) of inhibitors of NFκB (10 μmol/L Bay11-7082) or HIF1α (100 μmol/L HIF-1α inhibitor). Luciferase activity was measured using foe DUAL-Glo Luciferase Assay system (E1910, Promega) and normalized to a constitutively expressed renilla reporter or to protein concentration.

BMDMs [6] = test: Apoptotic assays of growth-factor deprived BMDM (TUNEL, active caspase-3); format: cell-based, mouse
Method: To induce apoptosis, BMDMs were grown in foe absence of L929 conditioned media (CM) for 3 days under normoxic or hypoxic conditions. In some assays, cells were treated with 100 μmol/L HIF-1α inhibitor or Unc5b-FC fragment or control IgG. After treatment, apoptotic cells were labeled with PE-active caspase-3 (557091, BD pharmingen) or by the TUNEL method using an in situ cell detection kit (Roche Diagnostics). Active Caspase-3, TUNEL and DAPI staining were analyzed with a Nikon Eclipse fluorescent microscope. Only TUNEL positive cells that colocalized with DAPI stained nuclei were considered apoptotic.

BMDMs [7] = test: qPCR of macrophages under hypoxic stress; format: cell-based, mouse
Method: Primary bone marrow derived macrophage (BMDM) were prepared by flushing the bone marrow of the tibia and femur of 6-8 week old C57/B6 mice as described (The cells were grown in DMEM supplemented with 15% L929-conditioned media, 10% FBS and 1% penicillin/streptomycin for 7 days and then treated with oxLDL or subjected to hypoxic conditions. Hypoxic incubations were carried out at 37° C. in a Billups-Rothenberg modular incubator chamber at 1% O2, 5% CO2 and 94% N2 for 24 hours. J774 control (J774con) and HIF-1α overexpressing (J774Hif) macrophages (Parathath et al., Circ. Res. 2011; 109:1141-1152) were grown in 5.5 mmol/L glucose containing DMEM supplemented with 15% FBS and 1% penicillin/streptomycin.
Total RNA was isolated using TRIZOL reagent and RNA ([…]) was reverse transcribed with an iScript cDNA Synthesis kit according to the manufacturer's instructions (Bio-Rad). RT-PCR analysis was performed using iQ SYBR green Supermix (Biorad) and a Mastercycler Realplex (Eppendorf) as we described (van Gils et al., Nat Immunol, 2012; 13:136-143). The change in mRNA expression was calculated by the comparative change-in-cycle-method (DDCT) relative to GAPDH mRNA levels. The following primer sets were used;

[8] = test system: Human UNC5B promoter-luciferase reporter; test: UNC5B promoter luciferase assay (Example 2); format: cell-based; settings: treatment with HIF-1α inhibitor
Method: as §3

[9] = test system: mouse peritoneal macrophages; test: Migration assay of peritoneal macrophages (pMø); format: cell-based; settings: for inhibitory effect of netrin-1 on CCL19-induced migration: macrophages pre-incubated with agent
Method: Migration assays. Chemotaxis of macrophages (pMø, RAW264.7) and CaSMC was measured in 96-well Boyden chamber with a 5 μm (macrophages) or 8 μm pore size filter (CaSMC) (Neuro Probe) as previously described (Ly, et al., Proc Natl Acad Sci USA, 2005, 102: 14729-14734). Macrophage chemotaxis was also quantified using a Real-time Cell Invasion and Migration (RT-CIM)×Celligence assay system with monitoring every 5 min (Roche Applied Science). […] In some assays, cells were pretreated with netrin-1 or UNC5b blocking antibody (AF1006, R&D Systems) or Neogenin blocking antibody (Santa Cruz, sc-6537) or control goat IgG (Santa Cruz) for 1 hour prior to migration. Following cell migration for 3 or 16 hours (CaSMC and macrophages, respectively), four random high power fields from each well were counted to determine the number of cells that had migrated into the lower chamber. Migration was expressed as chemotactic index, which was calculated by dividing the number of migrating cells in the treated groups by the number of migrating cells in the lowest control well. Results of chemotaxis assays are representative of at least three independent experiments performed on triplicate samples.

Rac1 = Rac1 activation assay; format: cell-based, mouse; settings: MCP-1 stimulation, within 5 minutes
Method: Rac1 activation assays Peritoneal macrophages were seeded in a 6-well plate overnight in regular growth media. The cells were stimulated with MCP-1 (10 ng/ml R&D systems) for 5 minutes with or without a pretreatment with mouse recombinant netrin-1 (250 ng/ml, R&D Systems) for 30 minutes. At the end of stimulation the cells were lysed and Rac1-GTP levels were measured using Rac1 Activation Assay (Cell Biolabs) according manufacturer's instructions.

BMDM [10] = test: qRT-PCR of BMDM (palmitate, cytokines, adipocyte conditioned media); format: cell-based, mouse; settings: direct addition of cytokine
Method: Real-time Quantitative RT-PCR Analysis RNA (0.5-1 μg) was reverse transcribed using iScript™ cDNA Synthesis Kit (Biorad) and RT-PCR analysis was conducted using kapa SYBR green Supermix (kappa syber) and a Mastercycler Realplex (Eppendorf) the primers used are listed. Fold change in mRNA expression was calculated using the comparative cycle method (ΔΔCt).
Cell culture. Primary bone marrow derived macrophage (BMDM) was prepared by flushing the bone marrow of the tibia and femur of 6-8 week old C57/B6 mice. The cells were grown in DMEM supplemented with 15% L929-conditioned media, 10% FBS and 1% penicillin/streptomycin for 7 days. BMDM were stimulated 250 pM palmitate conjugated with BSA or BSA as a control for 24 hours, or TNFα (10 ng/ml, 410-MT-010; R&D systems), IL-6 (40 nglml, 406-ML-005; R&D systems) and IL-4 (1 Onglml, 404-ML-010; R&D systems) for 24 h. In some assays, differentiated BMDM were treated with conditioned media from 3T3-L1 adipocytes differentiated as described (Lin, et al., J Biol Chem, 2005; 280:4617-4626) and treated with 250 pM palmitate conjugated with BSA or BSA for 24 hours. In certain experiments, anti-TNFα (0.4 μg/ml, AF-410-NA, R&D systems) or anti-IL-6 (0.025 μg/ml, MAB406; R&D systems) blocking antibody or IgG control (Normal Goat IgG: AB-108-C, Rat IgG1: MAB005; R&D systems) was added to conditioned media. Peritoneal macrophages were isolated as described (van Gils, et al., Nat Immunol, 2012; 13:136-143). Mice were injected intraperitoneally with 1 ml of 3% (wt/vol) thioglycolate to elicit sterile sterile peritonitis with macrophage numbers peaking on day 4. Cells were collected by lavage and used for migration assays.
Palmitate-BSA preparation. Sodium palmitate (P9767; Sigma Aldrich) was dissolved in sterile water in to make a 100-mM solution by alternating heating and vortexing until the palmitate was dissolved. Thu occurred once the solution reached 70 C. […]

peritoneal macrophages = test: Migration of palmitate-treated peritoneal macrophages to CCL19; format: cell-based, mouse; settings: addition of Unc5b-FC
Method: as §2, with “media. Peritoneal macrophages were isolated as described (van Gils, et al., Nat Immunol, 2012; 13:136-143).” for “media.”
Migration. The migration of ATM or peritoneal macrophages to CCL19 (500 ng/ml; R&D Systems) was assessed by the xCelligence Real-time Cell Invasion and Migration system (ACEA biosciences Inc) that monitored chemotaxis every 5 minutes for over 6 h. […]

J774Hif macrophages = test: J774 macrophage migration (xCelligence); format: cell-based, mouse; settings: treated with Unc5b-FC, no exogenous chemokine
Method: (§4) Macrophage chemotaxis was measured using the Real-Time Cell Invasion and Migration xCelligence Assay System with monitoring every 3 min (Roche Applied Science). BMDM migration towards MCP-1 (100 ng/ml; R&D Systems) was measured in the presence or absence of oxLDL (50 μg/ml) and/or recombinant rat UNC5b-Fc chimera (1006-UN; R&D Systems) to block the effects of netrin-1. In a subset of experiments, cells were pre-treated with 0.1 mmol/L CoCl2 for 1 h prior to migration. J774 macrophage migration was carried out in the presence or absence of UNC5b-Fc chimera. Results of chemotaxis assays are representative of at least three independent experiments performed on triplicate samples.

BMDM [11] = test: BMDM migration towards MCP-1 (xCelligence); format: cell-based, mouse; settings: treatment with Unc5b-FC
Method: as §4

Compound: COC(=O)CNC(=O)C(=O)OC [DMOG, dimethyloxalylglycine]
Ntn1 promoter activity ([5]; HEK293 cells): potently induced

Compound: COC(=O)c1ccc(O)c(NC(=O)COc2ccc(C34CC5CC(CC(C5)C3)C4)cc2)c1 [HIF-1α inhibitor]
oxLDL- and DMOG-induced increase in Ntn1 promoter activity ([5]; presence or absence of HIF-1α inhibitor): dependent on HIF-1α activity
protection from apoptosis (TUNEL) under hypoxic conditions (BMDMs [6]; growth-factor deprived BMDM, HIF-1α inhibitor): reversed
oxLDL-induced Unc5b mRNA in BMDM (BMDMs [7]; HIF-1α inhibitor): required HIF-1α activity
Unc5b mRNA in response to low oxygen concentration, CoCl2 or DMOG (BMDMs [7]; pre-treated with HIF-1α inhibitor): no upregulation of Unc5b
increase in Ntn1 mRNA under hypoxia, CoCl2, DMOG or oxLDL (BMDMs [7]; pretreatment with HIF-1α inhibitor): blocked
oxLDL-induced increase in Unc5b promoter activity [8]: abrogated

Compound: Cn1c(=O)c2nc(-c3ccccc3)[nH]c2n(C)c1=O [inhibitor of the A2B adenosine receptor]
inhibitory effect of netrin-1 on CCL19-induced migration [9]: no change

Compound: MCP-1: chemokine MCP-1 (R&D Systems)
levels of activated Rac1 (Rac1): approximately 3 fold

Compound: TNFα
Ntn1 mRNA in BMDMs (BMDM [10]): increased Ntn1 mRNA

Compound: UNC5b-Fc: recombinant rat UNC5b-Fc chimera (cat #1006-UN, R&D Systems) to block the effects of netrin-1
inhibition of migration to CCL19 by conditioned medium from oxLDL-treated macrophages ([9]; addition of recombinant UNC5b-Fc): reversed
inhibitory effect of netrin-1 on CCL19-induced migration [9]: reversed the inhibitory effect of netrin-1
TUNEL and active caspase-3 staining under hypoxic conditions (BMDMs [6]; growth factor deprived macrophages, Unc5b-FC): increased TUNEL and active caspase-3 staining similar to normoxic controls
migration of palmitate-treated macrophages to CCL19 (peritoneal macrophages): restored
migration of J774-HIF cells (J774Hif macrophages): comparable to control J774 macrophages
CoCl2 impairment of macrophage migration to MCP-1 (BMDM [11]): reversed this effect

Second part, led by results:

oxLDL induction of netrin-1 promoter activity [1]: inhibited
Compound: Cc1ccc(S(=O)(=O)/C=C/C#N)cc1 [BAY 11-7082]

palmitate-induced Unc5b-promoter luciferase activity [2]: inhibited, in part
palmitate-induced Ntn1-promoter luciferase activity [3]: inhibited, in part
Compound: CC(C)(C)c1ccc(S(=O)(=O)/C=C/C#N)cc1 [BAY 11-7085]
palmitate-induced secretion of netrin-1 by BMDM (BMDM [4]): inhibited, in part
